Source: US10988465B2, “CXCR4 inhibitors and uses thereof” (X4 Pharmaceuticals, Inc., priority 2016, dated 2021)
Like-named read-outs stand apart in the source and are kept apart here.

What was measured:
[1] = Mouse brain uptake assay (MBUA), 3 mg/kg IV, 0-1 h, 3 time points; format: in vivo, male CD1 mice; settings: for clearance / half-life: CD1, plasma, 3 time points; for half-life: read-out: t½ (converted)
Procedure: Example 38: Pharmacokinetics and Brain Penetration Experiment to Determine Brain and Plasma Concentrations of Compounds after IV Administration to Male CD1 Mice
The study design (9 animals) consisted of administrating the drug (IV: 3 mg/kg (5 mL/kg) via tail vein injection) and collecting samples at terminal bleeding for plasma and brain at 0.083, 0.5 and 1 h. The IV dosing solution was prepared in 50 mM citrate buffer (pH 4.0) at 0.6 mg/mL. The blood collection was performed as follows: the animal was restrained manually and approximately 150 μL blood/time point was collected into a dipotassium EDTA tube via retro orbital puncture under anesthesia with isoflurane. The blood sample was put on ice and centrifuged to obtain a plasma sample (2000 g, 5 min under 4° C.) within 15 minutes. The brain collection was performed as follows: a mid-line incision was made in the animal's scalp and the skin was retracted. Using small bone cutters and rongeurs, the skull overlying the brain was removed. The brain was removed using a spatula and the brain rinsed with cold saline. The brain was placed in screw-top tubes, and the tubes were stored at −70° C. until analysis.
An aliquot of 30 μL sample was added to 150 μL MeCN containing 50 ng/mL IS (Dexamethasone). The mixture was vortexed for 5 min and centrifuged at 14,000 rpm for 5 min. An aliquot of 5 μL supernatant was injected for LC-MS/MS analysis.
An aliquot of 30 μL brain homogenate (brain:PBS=1:3, w/v) sample was added to 150 μL IS in MeCN (Dexamethasone, 50 ng/mL). The mixture was vortexed for 5 min and centrifuged at 14,000 rpm for 5 min. An aliquot of 5 μL supernatant was injected for LC-MS/MS analysis.
The sample analysis was performed on LCMS/MS-003 (API4000, triple quadruple) under the following conditions: positive ion, ESI, MRM detection using dexamethasone as internal standard. HPLC conditions: mobile phase A: H2O (0.025% formic acid (FA) with 1 mM NH4OAc); mobile phase B: MeOH (0.025% FA with 1 mM NH4OAc) on Waters X-Bridge C18 (2.1×50 mm, 2.5 μm) column at 60° C.

[2] = in vitro; settings: human, Caco-2, pH 7.4
In short: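 Caco-2 monolayers, checked by TEER with Lucifer yellow as marker, were dosed with 10 μM compound in HBSS pH 7.4 in A-to-B and B-to-A directions. Incubation was 90 min at 37° C, in duplicate. Samples were quantified by LC-MS/MS and Papp calculated.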

[3] = Rat brain uptake assay: pharmacokinetics and brain penetration after IV-PO administration; format: in vivo, male SD rats
[4] = male, CD1, brain, mouse, 3 mg/kg IV, 0-1 h, read-out: AUClast (b)
[5] = male, CD1, plasma, mouse, 3 mg/kg IV, 0-1 h, read-out: AUClast (P)
[6] = brain (brain proteins), read-out: Fu (b) % (fraction of drug unbound to brain proteins)
[7] = plasma, read-out: Fu (p) % (fraction of drug unbound to plasma proteins)

Structure (SMILES)	clearance ([1]; male, mouse, 3 mg/kg IV, 0-1 h)	half-life ([1]; male, mouse, 3 mg/kg IV, 0-1 h)	AUC(0-t) [1, 4]	AUC(0-t) [1, 5]	Papp A→B at 90 min, 10 μM [2]	Papp B→A at 90 min, 10 μM [2]	fraction unbound [3, 6]	fraction unbound [3, 7]	Kp ([1]; male, CD1, mouse, brain/plasma, iv, 3 mg/kg)	Kp uu ([1]; male, CD1, unbound brain/unbound plasma, mouse, 3 mg/kg IV, 0-1 h, read-out: Kp, uu)	fraction unbound ([1]; mouse, fraction unbound to brain proteins, read-out: Fu (b) %)	fraction unbound ([1]; mouse, fraction unbound to plasma proteins, read-out: Fu (p) %)	efflux ratio at 90 min, 10 μM [2]
Cc1cccnc1[C@@H]1CCC[C@H](c2nc3cccc(N4CCN(C)CC4)c3[nH]2)N1C (racemic) [I-3, 2-((2R,6S)-1-methyl-6-(3-methylpyridin-2-yl)piperidin-2-yl)-7-(4-methylpiperazin-1-yl)-1H-benzo[d]imidazole]	115 mL/min/kg	18 min	180 ng·h/mL	268 ng·h/mL	0.1 to 10 ×10⁻⁶ cm/s	10 to 30 ×10⁻⁶ cm/s	0.014	0.101	–	–	–	–	–
CN1CCN(c2cccc3nc([C@H]4CCC[C@@H](c5ncccc5Cl)N4)[nH]c23)CC1 (racemic) [I-122]	119 mL/min/kg	24.1 min	418 ng·h/mL	341 ng·h/mL	10 to 30 ×10⁻⁶ cm/s	10 to 30 ×10⁻⁶ cm/s	0.041	0.251	1.23	0.33	0.035	0.127	0.1 to 10
